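Following 48 hours of exposure in 96-well plates, responses at five concentrations were used to interpolate endpoints linearly. At the GI50, growth is halved.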 Active and inactive are the calls of the source. Cut-off read from the data, not from the text of the source: active = GI50 up to about 1.1 µM and inactive = higher.
How the values were obtained:
Experiment in all cases: NCI-60 cell line screen, 48 h
786-0 = test system: 786-0
ACHN = test system: ACHN
COLO 205 = test system: COLO 205
EKVX = test system: EKVX
HCC 2998 = test system: HCC 2998
HCT-116 = test system: HCT-116
HCT-15 = test system: HCT-15
HL-60 = test system: HL-60
HOP-62 = test system: HOP-62
IGROV-1 = test system: IGROV-1
K562 = test system: K562
KM12 = test system: KM12
M14 = test system: M14
MCF7 = test system: MCF7
MDA-MB-231 = test system: MDA-MB-231
MDA-MB-435 = test system: MDA-MB-435
MDA-N = test system: MDA-N
MOLT-4 = test system: MOLT-4
NCI-H522 = test system: NCI-H522
NCI/ADR-RES = test system: NCI/ADR-RES
OVCAR-5 = test system: OVCAR-5
OVCAR-8 = test system: OVCAR-8
PC-3 = test system: PC-3
RPMI-8226 = test system: RPMI-8226
SF-268 = test system: SF-268
SF-295 = test system: SF-295
SF-539 = test system: SF-539
SK-MEL-28 = test system: SK-MEL-28
SK-MEL-5 = test system: SK-MEL-5
SK-OV-3 = test system: SK-OV-3
SN12C = test system: SN12C
SNB-19 = test system: SNB-19
SNB-75 = test system: SNB-75
SR = test system: SR
SW-620 = test system: SW-620
T47D = test system: T47D
TK-10 = test system: TK-10
U-251 = test system: U-251
UACC-257 = test system: UACC-257
UO-31 = test system: UO-31
A498 = test system: A498
A549 = test system: A549
CAKI-1 = test system: CAKI-1
CCRF-CEM = test system: CCRF-CEM
DU-145 = test system: DU-145
HT-29 = test system: HT-29
LOX IMVI = test system: LOX IMVI
Malme-3M = test system: Malme-3M
NCI-H460 = test system: NCI-H460
OVCAR-3 = test system: OVCAR-3
UACC-62 = test system: UACC-62

`COc1ccc2c3c([nH]c2c1)-c1nc2ccccc2c(=O)n1CC3` was tested, and the GI50 (786-0) was 0.317 µM (active), the GI50 (ACHN) was > 25 µM (inactive) and the GI50 (COLO 205) was > 25 µM (inactive). The GI50 (EKVX) was > 25 µM (inactive), the GI50 (HCC 2998) was > 25 µM (inactive) and the GI50 (HCT-116) was > 25 µM (inactive). For the same molecule, the GI50 (HCT-15) was > 25 µM, the GI50 (HL-60) was > 25 µM (inactive) and the GI50 (HOP-62) was > 25 µM (inactive). For the same molecule, the GI50 (IGROV-1) was > 25 µM (inactive), the GI50 (K562) was > 25 µM (inactive) and the GI50 (KM12) was > 25 µM (inactive). For the same molecule, the GI50 (M14) was > 25 µM (inactive), the GI50 (MCF7) was > 25 µM (inactive) and the GI50 (MDA-MB-231) was > 25 µM (inactive). The GI50 (MDA-MB-435) was > 25 µM (inactive), the GI50 (MDA-N) was > 25 µM (inactive) and the GI50 (MOLT-4) was > 25 µM (inactive). For the same molecule, the GI50 (NCI-H522) was > 25 µM (inactive), the GI50 (NCI/ADR-RES) was > 25 µM (inactive) and the GI50 (OVCAR-5) was > 25 µM (inactive). The GI50 (OVCAR-8) was > 25 µM (inactive), the GI50 (PC-3) was > 25 µM (inactive) and the GI50 (RPMI-8226) was > 25 µM (inactive). The GI50 (SF-268) was 21.5 µM (inactive), the GI50 (SF-295) was > 25 µM (inactive) and the GI50 (SF-539) was 14.9 µM (inactive). For the same molecule, the GI50 (SK-MEL-28) was > 25 µM (inactive), the GI50 (SK-MEL-5) was > 25 µM (inactive) and the GI50 (SK-OV-3) was > 25 µM (inactive). The GI50 (SN12C) was > 25 µM (inactive), the GI50 (SNB-19) was > 25 µM (inactive) and the GI50 (SNB-75) was 13.1 µM (inactive). For the same molecule, the GI50 (SR) was > 25 µM (inactive), the GI50 (SW-620) was > 25 µM (inactive) and the GI50 (T47D) was > 25 µM (inactive). For the same molecule, the GI50 (TK-10) was > 25 µM (inactive), the GI50 (U-251) was > 25 µM (inactive) and the GI50 (UACC-257) was > 25 µM (inactive). The GI50 (UO-31) was > 25 µM (inactive).
For `COc1ccc(-c2oc3ccccc3c(=O)c2O)cc1OC` [3-HYDROXY-3',4'-DIMETHOXYFLAVONE], the GI50 (A498) was 6.92 µM (inactive), the GI50 (A549) was > 100 µM (inactive) and the GI50 (ACHN) was 10.6 µM (inactive). For the same molecule, the GI50 (CAKI-1) was 55.2 µM (inactive), the GI50 (CCRF-CEM) was 3.81 µM (inactive) and the GI50 (COLO 205) was > 100 µM (inactive). The GI50 (DU-145) was 7.16 µM (inactive), the GI50 (EKVX) was > 100 µM (inactive) and the GI50 (HCT-116) was > 100 µM (inactive). The GI50 (HCT-15) was > 100 µM, the GI50 (HOP-62) was 11.2 µM (inactive) and the GI50 (HT-29) was > 100 µM (inactive). The GI50 (IGROV-1) was 14.3 µM (inactive), the GI50 (K562) was > 100 µM (inactive) and the GI50 (LOX IMVI) was 9.95 µM (inactive). The GI50 (M14) was > 100 µM (inactive), the GI50 (MCF7) was > 100 µM (inactive) and the GI50 (MDA-MB-231) was > 100 µM (inactive). The GI50 (MDA-MB-435) was > 100 µM (inactive), the GI50 (MDA-N) was > 100 µM (inactive) and the GI50 (Malme-3M) was > 100 µM (inactive). The GI50 (NCI-H460) was 4.69 µM (inactive), the GI50 (NCI-H522) was 4.63 µM (inactive) and the GI50 (NCI/ADR-RES) was 3.77 µM (inactive). For the same molecule, the GI50 (OVCAR-3) was 47.5 µM (inactive), the GI50 (OVCAR-5) was > 100 µM (inactive) and the GI50 (PC-3) was > 100 µM (inactive). The GI50 (SF-268) was 7.5 µM (inactive), the GI50 (SF-295) was 17.4 µM (inactive) and the GI50 (SK-MEL-28) was 25.3 µM (inactive). For the same molecule, the GI50 (SK-MEL-5) was > 100 µM (inactive), the GI50 (SK-OV-3) was 4.81 µM (inactive) and the GI50 (SNB-19) was 29 µM (inactive). For the same molecule, the GI50 (SW-620) was > 100 µM (inactive), the GI50 (T47D) was 99.5 µM (inactive) and the GI50 (TK-10) was 12.3 µM (inactive). For the same molecule, the GI50 (U-251) was 4.92 µM (inactive), the GI50 (UACC-257) was > 100 µM (inactive) and the GI50 (UACC-62) was 5.22 µM (inactive). For the same molecule, the GI50 (UO-31) was > 100 µM (inactive).

Source: ChEMBL document CHEMBL1201862, “PubChem BioAssay data set” (2004)
